Assay results from US11109593B2, “Isoxazolin-5-one derivative and herbicide containing same as active ingredient” (HOKKO CHEMICAL INDUSTRY CO., LTD., priority 2017, dated 2021).

Experiments:
Format in all cases: in vivo
Echinochloa crus-galli [1] = assay: Test Example 4: herbicidal effect test by treatment of leave and stem in dry field farming (seven days after seeding); conditions: 120 g/10a active ingredient; emulsion sprayed seven days after seeding; evaluated 14 days after treatment
Procedure, shortened: (§1)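 Weeds were seeded at 20 seeds per species into the top 1 cm of alluvial upland soil in pots, then sprayed 7 days after seeding with water-diluted emulsifiable concentrate at 100 L/10 a, giving 120 g active ingredient/10 a. Duplicate pots; herbicidal rate (%) was 14 days post-treatment, from dry weight versus untreated.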

Amaranthus viridis [2] = assay: as above; conditions: 120 g/10a active ingredient; emulsion sprayed seven days after seeding; evaluated 14 days after treatment
Procedure, shortened: as §1

southern crabgrass [3] = assay: as above; conditions: 120 g/10a active ingredient; emulsion sprayed seven days after seeding; evaluated 14 days after treatment
Procedure, shortened: as §1

Chenopodium album [4] = assay: as above; conditions: 120 g/10a active ingredient; emulsion sprayed seven days after seeding; evaluated 14 days after treatment
Procedure, shortened: as §1

Echinochloa crus-galli [5] = assay: Test Example 3: herbicidal effect test by treatment of dry field farming soil (one day after seeding); conditions: 120 g/10a active ingredient, evaluated 14 days after treatment
Procedure, shortened: (§2)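 Dry-field alluvium pots; weed seeds incorporated in top 1 cm; soil spray of diluted emulsion 1 d after seeding, 120 g a.i./10 a in 100 L/10 a. Readout: % reduction of dry weight vs untreated, day 14, duplicates.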

Amaranthus viridis [6] = assay: as above; conditions: 120 g/10a active ingredient, evaluated 14 days after treatment
Procedure, shortened: as §2

southern crabgrass [7] = assay: as above; conditions: 120 g/10a active ingredient, evaluated 14 days after treatment
Procedure, shortened: as §2

Chenopodium album [8] = assay: as above; conditions: 120 g/10a active ingredient, evaluated 14 days after treatment
Procedure, shortened: as §2

Echinochloa crus-galli [9] = assay: Test Example 1: herbicidal effect test by treatment of rice paddy soil (immediately after seeding); conditions: 120 g/10a active ingredient, dry weight vs untreated area, 14 days after treatment
Procedure, shortened: (§3)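 Pre-emergence paddy water application, 120 g a.i./10 ares, applied immediately post-seeding into ~3 cm flood; glasshouse; duplicate pots; dry weight at 14 d → % inhibition = (1 − treated/untreated) × 100.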

[10] = tested on: broad leaf weeds (Lindernia pyxidaria and Monochoria vaginalis); assay: as above; conditions: 120 g/10a active ingredient, dry weight vs untreated area, 14 days after treatment
Procedure, shortened: as §3

Scirpus juncoides [11] = assay: as above; conditions: 120 g/10a active ingredient, dry weight vs untreated area, 14 days after treatment
Procedure, shortened: as §3

Echinochloa crus-galli [12] = assay: Test Example 2: herbicidal effect test by treatment during growing period in paddy rice cultivation (seven days after seeding); conditions: 120 g/10a active ingredient, assessed 14 days after treatment, dry weight vs untreated area
Procedure, shortened: (§4)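 Post-emergence paddy water application: compounds were formulated as emulsions, diluted and dropped into flooded pots seven days after sowing at a rate equivalent to 120 g per 10 ares. Efficacy was taken as dry-weight reduction relative to untreated controls after 14 days.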

[13] = tested on: broad leaf weeds (Lindernia pyxidaria and Monochoria vaginalis); assay: as above; conditions: 120 g/10a active ingredient, assessed 14 days after treatment, dry weight vs untreated area
Procedure, shortened: as §4

Scirpus juncoides [14] = assay: as above; conditions: 120 g/10a active ingredient, assessed 14 days after treatment, dry weight vs untreated area
Procedure, shortened: as §4

| Compound | herbicidal effect (herbicidal rate), Echinochloa crus-galli (Echinochloa crus-galli [1]) [%] | herbicidal effect (herbicidal rate), Amaranthus viridis (Amaranthus viridis [2]) [%] | herbicidal effect (herbicidal rate), southern crabgrass (southern crabgrass [3]) [%] | herbicidal effect (herbicidal rate), Chenopodium album (Chenopodium album [4]) [%] | herbicidal rate, Echinochloa crus-galli (Echinochloa crus-galli [5]) [%] | herbicidal rate, Amaranthus viridis (Amaranthus viridis [6]) [%] | herbicidal rate, southern crabgrass (southern crabgrass [7]) [%] | herbicidal rate, Chenopodium album (Chenopodium album [8]) [%] | Herbicidal rate (%) Echinochloa crus-galli (Echinochloa crus-galli [9]) [%] | Herbicidal rate (%) Lindernia pyxidaria [10] [%] | Herbicidal rate (%) Monochoria vaginalis [10] [%] | Herbicidal rate (%) Scirpus juncoides (Scirpus juncoides [11]) [%] | Herbicidal rate (%) Echinochloa crus-galli (Echinochloa crus-galli [12]) [%] | Herbicidal rate (%) Lindernia pyxidaria [13] [%] | Herbicidal rate (%) Monochoria vaginalis [13] [%] | Herbicidal rate (%) Scirpus juncoides (Scirpus juncoides [14]) [%] |
| --- | --- | --- | --- | --- | --- | --- | --- | --- | --- | --- | --- | --- | --- | --- | --- | --- |
| Cc1c(Cc2ccccc2N(C(=O)C(C)C)S(=O)(=O)C(F)(F)F)c(=O)on1CC(C)(C)C [Compound 1-333] | 90 | 40 | 90 | 40 | 90 | 90 | 90 | 90 | 90 | 90 | 90 | 90 | 90 | 90 | 90 | 90 |
| CCCC(C)n1oc(=O)c(Cc2ccccc2N(C(=O)C(C)C)S(=O)(=O)C(F)(F)F)c1C (stereo not shown) [Compound 1-334] | 90 | 60 | 90 | 60 | 90 | 50 | 70 | 40 | 100 | 70 | 80 | 90 | 100 | 70 | 70 | 90 |
| COCC(C)n1oc(=O)c(Cc2ccccc2N(C(=O)C(C)C)S(=O)(=O)C(F)(F)F)c1C (stereo not shown) [Compound 1-335] | 90 | 40 | 90 | 40 | 90 | 90 | 90 | 90 | 90 | 90 | 90 | 90 | 90 | 90 | 90 | 90 |
| CSCCn1oc(=O)c(Cc2ccccc2N(C(=O)C(C)C)S(=O)(=O)C(F)(F)F)c1C [Compound 1-336] | 90 | 40 | 90 | 40 | 90 | 90 | 90 | 90 | 90 | 90 | 90 | 90 | 90 | 90 | 90 | 90 |
| Cc1c(Cc2ccccc2N(C(=O)C(C)C)S(=O)(=O)C(F)(F)F)c(=O)on1C(C)c1ccccc1 (stereo not shown) [Compound 1-337] | 90 | 40 | 90 | 40 | 90 | 90 | 90 | 90 | 90 | 90 | 90 | 90 | 90 | 90 | 90 | 90 |
| Cc1c(Cc2ccccc2N(C(=O)CC(C)C)S(=O)(=O)C(F)(F)F)c(=O)on1C(C)(C)C [Compound 1-351] | 90 | 40 | 90 | 40 | 90 | 90 | 90 | 90 | 90 | 90 | 90 | 90 | 90 | 90 | 90 | 90 |
| CCC(C)n1oc(=O)c(Cc2ccccc2N(C(=O)CC(C)C)S(=O)(=O)C(F)(F)F)c1C (stereo not shown) [Compound 1-352] | 90 | 40 | 90 | 40 | 90 | 90 | 90 | 90 | 90 | 90 | 90 | 90 | 90 | 90 | 90 | 90 |
| CCC(CC)n1oc(=O)c(Cc2ccccc2N(C(=O)CC(C)C)S(=O)(=O)C(F)(F)F)c1C [Compound 1-353] | 90 | 40 | 90 | 40 | 90 | 90 | 90 | 90 | 90 | 90 | 90 | 90 | 90 | 90 | 90 | 90 |
| Cc1c(Cc2ccccc2N(C(=O)CC(C)C)S(=O)(=O)C(F)(F)F)c(=O)on1CC(C)C [Compound 1-354] | 80 | 40 | 60 | 40 | 90 | 90 | 80 | 90 | 100 | 90 | 90 | 90 | 100 | 70 | 90 | 90 |
| Cc1c(Cc2ccccc2N(C(=O)CC(C)C)S(=O)(=O)C(F)(F)F)c(=O)on1CC(C)(C)C [Compound 1-355] | 90 | 40 | 90 | 40 | 90 | 90 | 90 | 90 | 90 | 90 | 90 | 90 | 90 | 90 | 90 | 90 |
